In series [1] the test system is Candida albicans. Nature of the series: Antifungal activity against Candida albicans ATCC 10231 assessed as reduction in fungal cell growth preincubated for 3 hrs followed by medium replenishment further incubated for 18 hrs by serial microdilution method. Format: functional.
Series [2] deals with Pseudomonas aeruginosa. Nature of the series: Antibacterial activity against Pseudomonas aeruginosa assessed as reduction in bacterial cell growth preincubated for 3 hrs followed by medium replenishment further incubated for 18 hrs by serial microdilution method. The series is classed as functional.
The test system of series [3] is Escherichia coli. The series can be described thus: Binding affinity to cell surface of Escherichia coli KCTC 2223 at 1 uM incubated for 5 mins by confocal laser scanning microscopy. Format: organism-based.
Series [4] concerns Salmonella typhimurium. Nature of the series: Binding affinity to cell surface of Salmonella typhimurium KCTC 2370 at 1 uM incubated for 5 mins by confocal laser scanning microscopy. Format: organism-based. The conditions noted are these: Salmonella enterica subsp. enterica serovar Typhimurium.
Series [5] addresses T1, Outer membrane porin F (Pseudomonas aeruginosa (strain ATCC 15692 / DSM 22644 / CIP 104116 / JCM14847 / LMG 12228 / 1C / PRS 101 / PAO1)) (UniProt P13794).
T1 sequence (whole entry): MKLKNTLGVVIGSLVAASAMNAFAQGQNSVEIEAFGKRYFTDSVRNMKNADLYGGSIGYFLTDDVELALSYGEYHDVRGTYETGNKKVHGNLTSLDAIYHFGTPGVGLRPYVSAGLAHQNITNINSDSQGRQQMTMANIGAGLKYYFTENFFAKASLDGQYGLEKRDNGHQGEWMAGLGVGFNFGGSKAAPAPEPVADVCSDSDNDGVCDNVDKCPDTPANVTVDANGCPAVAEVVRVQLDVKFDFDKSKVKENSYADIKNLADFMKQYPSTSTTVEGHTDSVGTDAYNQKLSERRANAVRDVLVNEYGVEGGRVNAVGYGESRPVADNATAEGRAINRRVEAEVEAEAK
Nature of the series: Binding affinity to OprF in Pseudomonas aeruginosa H103 assessed as binding affinity to bacterial cell surface at 1 uM incubated for 5 mins by confocal laser scanning microscopy.

The subject of series [6] is Outer membrane porin F (Pseudomonas aeruginosa (strain ATCC 15692 / DSM 22644 / CIP 104116 / JCM14847 / LMG 12228 / 1C / PRS 101 / PAO1)), P13794 [UNDEFINED MUTATION]. Nature of the series: Binding affinity to OprF mutant in Pseudomonas aeruginosa H636 at 1 uM incubated for 5 mins by confocal laser scanning microscopy.
Series [7] concerns Pseudomonas aeruginosa. The series can be described thus: Antibacterial activity against multidrug resistant Pseudomonas aeruginosa H103 infected in BALB/c mouse infected assessed as survival rate at 15 mg/kg, ip measured on day 7. The series is classed as functional. The conditions noted are these: 168 h.
The subject of series [8] is Staphylococcus aureus. The series can be described thus: Antibacterial activity against Staphylococcus aureus ATCC 15752 assessed as reduction in bacterial cell growth preincubated for 3 hrs followed by medium replenishment further incubated for 18 hrs by serial microdilution method. The series is classed as functional.
Series [9] concerns Salmonella typhimurium. Nature of the series: Antibacterial activity against Salmonella typhimurium KCTC 2370 assessed as reduction in bacterial cell growth preincubated for 3 hrs followed by medium replenishment further incubated for 18 hrs by serial microdilution method. Format: functional, Salmonella enterica subsp. enterica serovar Typhimurium. The conditions noted are these: Salmonella enterica. A general note: Broth dilution looks for growth in wells or tubes with falling amounts of substance.

The test system of series [10] is Escherichia coli. The series can be described thus: Antibacterial activity against Escherichia coli KCTC 2223 assessed as reduction in bacterial cell growth preincubated for 3 hrs followed by medium replenishment further incubated for 18 hrs by serial microdilution method. Format: functional.
For series [11], the system named is Mus musculus. Nature of the series: In vivo antibacterial activity against multidrug resistant Pseudomonas aeruginosa H103 infected in BALB/c mouse assessed as reduction in bacterial load by measuring decrease in colony forming units in kidney at 25 mg/kg, ip measured after 12 hrs. Format: functional.
For series [12], the system named is Pseudomonas aeruginosa. The series can be described thus: Antibacterial activity against Pseudomonas aeruginosa H103 co-cultured with Salmonella typhimurium KCTC 2370 assessed as reduction in bacterial load by measuring decrease in colony forming units at 2 uM incubated for 30 mins by time-kill assay. Format: functional.
Series [13] concerns Salmonella typhimurium. Nature of the series: Antibacterial activity against Salmonella typhimurium KCTC 2370 co-cultured with Pseudomonas aeruginosa H103 assessed as reduction in bacterial load by measuring decrease in colony forming units at 2 uM incubated for 30 mins by time-kill assay. The series is classed as functional, organism-based. The settings on record: Salmonella enterica subsp. enterica serovar Typhimurium.

In series [14] the test system is Pseudomonas aeruginosa. The series can be described thus: Antibacterial activity against multidrug resistant Pseudomonas aeruginosa H103 infected in BALB/c mouse infected assessed as survival rate at 25 mg/kg, ip measured on day 7. The series is classed as functional. The conditions noted are these: 168 h.
For series [15], the system named is Escherichia coli. Nature of the series: Antibacterial activity against Escherichia coli KCTC 2223 co-cultured with Pseudomonas aeruginosa H103 assessed as reduction in bacterial load by measuring decrease in colony forming units at 2 uM incubated for 30 mins by time-kill assay. The series is classed as functional.
The subject of series [16] is Mus musculus. The series can be described thus: In vivo antibacterial activity against multidrug resistant Pseudomonas aeruginosa H103 infected in BALB/c mouse assessed as reduction in bacterial load by measuring decrease in colony forming units in liver at 25 mg/kg, ip measured after 12 hrs. Format: functional.
In series [17] the test system is Mus musculus. The series can be described thus: In vivo antibacterial activity against multidrug resistant Pseudomonas aeruginosa H103 infected in BALB/c mouse assessed as reduction in bacterial load by measuring decrease in colony forming units in spleen at 25 mg/kg, ip measured after 12 hrs. The series is classed as functional.
Another series deals with Erythrocyte. Nature of the series: Hemolytic activity in human RBC incubated for 30 mins. The settings on record: 0.5 h. The series is classed as ADME, cell-based.
The test system of series [18] is Pseudomonas aeruginosa. Nature of the series: Antibacterial activity against Pseudomonas aeruginosa H103 co-cultured with Escherichia coli KCTC 2223 assessed as reduction in bacterial load by measuring decrease in colony forming units at 2 uM incubated for 30 mins by time-kill assay. Format: functional.
Series [19] deals with Pseudomonas aeruginosa. The series can be described thus: Binding affinity to cell surface of Pseudomonas aeruginosa H103 at 10 uM incubated for 1 hr by ELISA. Format: organism-based.
For series [20], the system named is Salmonella typhimurium. Nature of the series: Binding affinity to cell surface of Salmonella typhimurium KCTC 2370 at 10 uM incubated for 1 hr by ELISA. Format: organism-based. The settings on record: Salmonella enterica subsp. enterica serovar Typhimurium. On the technique in general: In an ELISA, binding on a coated surface is turned into a signal by an enzyme label.

Series [21] has as its system Candida albicans. The series can be described thus: Binding affinity to cell surface of Candida albicans ATCC 10231 at 10 uM incubated for 1 hr by ELISA. The series is classed as organism-based.
In series [22] the test system is Staphylococcus aureus. The series can be described thus: Binding affinity to cell surface of Staphylococcus aureus ATCC 15752 at 10 uM incubated for 1 hr by ELISA. The series is classed as organism-based.
Series [23] concerns the target T1, Outer membrane porin F (Pseudomonas aeruginosa (strain ATCC 15692 / DSM 22644 / CIP 104116 / JCM14847 / LMG 12228 / 1C / PRS 101 / PAO1)). The series can be described thus: Binding affinity to recombinant Pseudomonas aeruginosa OprF expressed in Escherichia coli BL21 (DE3) at 10 uM incubated for 1 hr by ELISA.
Series [24] shares this target. The series can be described thus: Binding affinity to OprF in Pseudomonas aeruginosa H103 at 10 uM incubated for 1 hr by ELISA.
For series [25], the system named is Outer membrane porin F (Pseudomonas aeruginosa (strain ATCC 15692 / DSM 22644 / CIP 104116 / JCM14847 / LMG 12228 / 1C / PRS 101 / PAO1)), P13794 [UNDEFINED MUTATION]. The series can be described thus: Binding affinity to OprF mutant in Pseudomonas aeruginosa H636 at 10 uM incubated for 1 hr by ELISA.
In series [26] the test system is Escherichia coli. The series can be described thus: Binding affinity to cell surface of Escherichia coli KCTC 2223 at 10 uM incubated for 1 hr by ELISA. Format: organism-based.
The subject of series [27] is Staphylococcus aureus. Nature of the series: Antibacterial activity against Staphylococcus aureus ATCC 15752 assessed as reduction in bacterial cell growth in presence of GNU7 preincubated for 3 hrs followed by medium replenishment further incubated for 18 hrs by serial microdilution method. Format: functional.
For series [28], the system named is Escherichia coli. The series can be described thus: Antibacterial activity against Escherichia coli KCTC 2223 assessed as reduction in bacterial cell growth in presence of GNU7 preincubated for 3 hrs followed by medium replenishment further incubated for 18 hrs by serial microdilution method. Format: functional.
Series [29] concerns Salmonella typhimurium. Nature of the series: Antibacterial activity against Salmonella typhimurium KCTC 2370 assessed as reduction in bacterial cell growth in presence of GNU7 preincubated for 3 hrs followed by medium replenishment further incubated for 18 hrs by serial microdilution method. Format: functional, Salmonella enterica subsp. enterica serovar Typhimurium. The settings on record: Salmonella enterica.

For series [30], the target named is T1, Outer membrane porin F (Pseudomonas aeruginosa (strain ATCC 15692 / DSM 22644 / CIP 104116 / JCM14847 / LMG 12228 / 1C / PRS 101 / PAO1)). Nature of the series: Binding affinity to OprF in Pseudomonas aeruginosa H103 assessed as binding affinity to bacterial cell surface at 10 uM incubated for 1 hr by ELISA.
The test system of series [31] is Pseudomonas aeruginosa. The series can be described thus: Antibacterial activity against Pseudomonas aeruginosa assessed as reduction in bacterial cell growth in presence of GNU7 preincubated for 3 hrs followed by medium replenishment further incubated for 18 hrs by serial microdilution method. The series is classed as functional.
For series [32], the system named is Candida albicans. Nature of the series: Antifungal activity against Candida albicans ATCC 10231 assessed as reduction in fungal cell growth in presence of GNU7 preincubated for 3 hrs followed by medium replenishment further incubated for 18 hrs by serial microdilution method. Format: functional.

A word on the MIC: it is the smallest concentration in the dilution series that meets the test's criterion for growth inhibition.

Calls of active or inactive are those of the source. Peptide text beside a SMILES is read from it. Bounds are passed on as bounds.

With H-RLLRPLLQLLKQKLR-OH, the MIC was 16 µM in the series on Candida albicans [1]; 32 µM in the series with Pseudomonas aeruginosa [2]; 4 µM in the series on Staphylococcus aureus [8]; 16 µM in the series with Salmonella typhimurium [9]; 8 µM in the series on Escherichia coli [10]. The outcome (in the series with Escherichia coli [3]; in the series with Salmonella typhimurium [4]; in [5]; in series [6]) was inactive. In the series with Pseudomonas aeruginosa [7], the survival at 15 mg/kg is 62.5%.
In the case of H-SQRKLAAKLTSKGGGRLLRPLLQLLKQKLR-OH, the Activity with Mus musculus [11] is on record as 3.6 log10CFU; with Pseudomonas aeruginosa [12], 1.4 log10CFU; in the series with Escherichia coli [15] it was 0.6 log10CFU; in the series with Mus musculus [16], 3 log10CFU; with Mus musculus [17] it was 2.8 log10CFU; with Erythrocyte, “Non-Toxic”. The Activity in the series with Pseudomonas aeruginosa [18] was determined as 2.7 log10CFU. Besides, the MIC in the series with Candida albicans [1] stood at 8 µM; in the series on Pseudomonas aeruginosa [2] it was 2 µM; in the series with Staphylococcus aureus [8] it was 2 µM; in the series with Salmonella typhimurium [9] it was 2 µM; in the series on Escherichia coli [10] it was 1 µM. Further, the outcome (in the series on Escherichia coli [3]; with Salmonella typhimurium [4]; in [6]; in the series on Salmonella typhimurium [13]) was inactive. Also, in [5], the result was Active. Moreover, the survival at 25 mg/kg in the series on Pseudomonas aeruginosa [14] was 100%.
For the compound H-VILTGPEAEYFW-OH, the outcome with Pseudomonas aeruginosa [19] was inactive.
With `C[C@@H](O)[C@H]1C(=O)N2C(C(=O)O)=C(S[C@@H]3CN[C@H](C(=O)N(C)C)C3)[C@H](C)[C@H]12` [MEROPENEM], the survival at 25 mg/kg in the series with Pseudomonas aeruginosa [14] turned out to be 25%.
Regarding `CC(C)C[C@H](NC(=O)[C@H](CO)NC(=O)[C@H](CO)NC(=O)[C@H](CS)NC(=O)[C@@H](N)CO)C(=O)N[C@H](C(=O)N[C@H](C(=O)N[C@@H](CC(C)C)C(=O)N[C@@H](CCCNC(=N)N)C(=O)N1CCC[C@H]1C(=O)N[C@@H](CS)C(=O)NCC(=O)O)[C@@H](C)O)[C@@H](C)O` (H-SCSSLTTLRPCG-OH), the result (with Salmonella typhimurium [20]; in the series on Candida albicans [21]; in the series on Pseudomonas aeruginosa [19]; in the series with Staphylococcus aureus [22]; in series [24]; in [25]) was Active. Moreover, the outcome with Escherichia coli [26] was Active. The outcome in series [23] was inactive.
Regarding H-SQRKLAAKLTSK-OH, the outcome (in the series on Salmonella typhimurium [20]; in the series with Candida albicans [21]; with Escherichia coli [3]; with Salmonella typhimurium [4]; in series [6]; with Staphylococcus aureus [22]) was inactive. Moreover, the result (in series [25]; with Escherichia coli [26]) was inactive. Besides, the MIC is > 32 µM in the series on Candida albicans [1]; 4 µM in the series on Staphylococcus aureus [27]; 8 µM in the series on Escherichia coli [28]; > 32 µM in the series with Pseudomonas aeruginosa [2]; 16 µM in the series on Salmonella typhimurium [29]; > 32 µM in the series on Staphylococcus aureus [8]. Further, the MIC in the series on Salmonella typhimurium [9] is > 32 µM; in the series on Pseudomonas aeruginosa [31], 32 µM; with Escherichia coli [10], > 32 µM; in the series on Candida albicans [32] it was 16 µM. Besides, the outcome in series [5], in [23], in series [24] and in series [30] was Active.

(Values after ChEMBL document CHEMBL4312012, “Development of a novel hybrid antimicrobial peptide for targeted killing of Pseudomonas aeruginosa” (Eur J Med Chem, 2020).)
